Laboratory results published in US9113629B2, “4-amino-6-(4-substituted-phenyl)-picolinates and 6-amino-2-(4-substituted-phenyl)-pyrimidine-4-carboxylates and their use as herbicides” (DOW AGROSCIENCES LLC, priority 2013, dated 2015).
Like-named read-outs stand apart in the source and are kept apart here.

How the values were obtained:
[1] = test system: Key Broadleaf Weed and Crop Species; experiment: Post-emergent Test II herbicidal activity (Table 5); assay type: in vivo; conditions: post-emergence, 336 h, 14 days after application; for pest or weed control at 70 g/ha: application rate 70 g ai/ha; for pest or weed control at 140 g/ha: application rate 140 g ai/ha
How it was run: (§1)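 Compounds, dissolved in 97:3 acetone/DMSO and diluted into an aqueous carrier containing crop oil concentrate and Triton X-155, are applied over the top of young plants at 187 L/ha. Injury is scored visually at 14 d, 0% meaning no effect and 100% complete kill.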

[2] = test system: Key Grass and Sedge Weeds as well as Grass Crops; experiment: Post-emergent Test II herbicidal activity (Table 6); assay type: in vivo; conditions: post-emergence, 336 h; for pest or weed control at 70 g/ha: 70 g ai/ha; for pest or weed control at 140 g/ha: 140 g ai/ha
How it was run: as §1

[3] = ABUTH: velvetleaf (Abutilon theophrasti), read-out: Visual Growth Reduction (%) 14 Days After Application, ABUTH
[4] = AMARE: redroot pigweed (Amaranthus retroflexus), read-out: Visual Growth Reduction (%) 14 Days After Application, AMARE
[5] = BRSNN: oilseed-rape, canola (Brassica napus), read-out: Visual Growth Reduction (%) 14 Days After Application, BRSNN
[6] = CHEAL: lambsquarters (Chenopodium album), read-out: Visual Growth Reduction (%) 14 Days After Application, CHEAL
[7] = EPHHL: wild poinsettia (Euphorbia heterophylla), read-out: Visual Growth Reduction (%) 14 Days After Application, EPHHL
[8] = HELAN: sunflower (Helianthus annuus), read-out: Visual Growth Reduction (%) 14 Days After Application, HELAN
[9] = VIOTR: wild pansy (Viola tricolor), read-out: Visual Growth Reduction (%) 14 Days After Application, VIOTR
[10] = CYPES: yellow nutsedge (Cyperus esculentus), read-out: Visual Growth Reduction (%) 14 Days After Application, CYPES
[11] = DIGSA: crabgrass (Digitaria sanguinalis), read-out: Visual Growth Reduction (%) 14 Days After Application, DIGSA
[12] = ECHCG: barnyardgrass (Echinochloa crus-galli), read-out: Visual Growth Reduction (%) 14 Days After Application, ECHCG
[13] = ORYSA: rice (Oryza sativa), crop, read-out: Visual Growth Reduction (%) 14 Days After Application, ORYSA
[14] = SETFA: giant foxtail (Setaria faberi), read-out: Visual Growth Reduction (%) 14 Days After Application, SETFA
[15] = SORVU: grain sorghum (Sorghum vulgare), read-out: Visual Growth Reduction (%) 14 Days After Application, SORVU
[16] = TRZSS (wheat, Triticum aestivum), crop, read-out: Visual Growth Reduction (%) 14 Days After Application, TRZSS
[17] = ZEAMX: maize, corn (Zea mays), crop, read-out: Visual Growth Reduction (%) 14 Days After Application, ZEAMX

N#Cc1ccc(-c2nc(C(=O)O)c(Cl)c(N)c2F)cc1 [Compound 39]
pest or weed control at 70 g/ha [1, 3]: 30 to 44% | pest or weed control at 140 g/ha [1, 3]: 60 to 74% | pest or weed control at 70 g/ha [1, 4]: 0 to 29% | pest or weed control at 140 g/ha [1, 4]: 0 to 29% | pest or weed control at 70 g/ha [1, 5]: 0 to 29% | pest or weed control at 140 g/ha [1, 5]: 30 to 44% | pest or weed control at 70 g/ha [1, 6]: 85 to 94% | pest or weed control at 140 g/ha [1, 6]: 95 to 100% | pest or weed control at 70 g/ha [1, 7]: 85 to 94% | pest or weed control at 140 g/ha [1, 7]: 95 to 100% | pest or weed control at 70 g/ha [1, 8]: 95 to 100% | pest or weed control at 140 g/ha [1, 8]: 95 to 100% | pest or weed control at 70 g/ha [1, 9]: 30 to 44% | pest or weed control at 140 g/ha [1, 9]: 30 to 44% | pest or weed control at 70 g/ha [2, 10]: 60 to 74% | pest or weed control at 140 g/ha [2, 10]: 75 to 84% | pest or weed control at 70 g/ha [2, 11]: 30 to 44% | pest or weed control at 140 g/ha [2, 11]: 45 to 59% | pest or weed control at 70 g/ha [2, 12]: 85 to 94% | pest or weed control at 140 g/ha [2, 12]: 85 to 94% | pest or weed control at 70 g/ha [2, 13]: 0 to 29% | pest or weed control at 140 g/ha [2, 13]: 0 to 29% | pest or weed control at 70 g/ha [2, 14]: 0 to 29% | pest or weed control at 140 g/ha [2, 14]: 30 to 44% | pest or weed control at 70 g/ha [2, 15]: 30 to 44% | pest or weed control at 140 g/ha [2, 15]: 60 to 74% | pest or weed control at 70 g/ha [2, 16]: 30 to 44% | pest or weed control at 140 g/ha [2, 16]: 45 to 59% | pest or weed control at 70 g/ha [2, 17]: 60 to 74% | pest or weed control at 140 g/ha [2, 17]: 60 to 74%
